Results: publication PMC7070897 (Molecules, 2020)
Where “and” joins values, the source holds several entries; their conditions need not be identical. Identical values can stand only once. Like-named read-outs stand apart in the source and are kept apart here. Positions of bridges follow the written chain, without caps; N, C: chain ends. Residues, ends and D or L forms follow the SMILES beside them.

What was measured:
[1] = on-resin Ugi-4CR macrocyclisation (stapling), Lys side-chain amine (i) to Asp/Glu side-chain acid (i+4): 1) paraformaldehyde 4 eq, pyrrolidine 4 eq, THF/MeOH 1:1, 30 min (imine); 2) isocyanide R-NC 4 eq, DCM/TFE 1:1, overnight; then TFA/TIS/H2O cleavage; settings: the molecule shown is the open-chain precursor, 18.0 h, 3 steps
[2] = test system: Phytophthora infestans (Mont.) de Bary
[3] = read-out: IC50 in μM, Phythophtora Infestants, Figures 1B and 2C, 96-well plate, OD 405 nm seven days after inoculation, triplicate, IC50 from dose-response curves by linear regression
[4] = read-out: Half maximal inhibitory concentration, Septoria Tritici
[5] = read-out: Half maximal inhibitory concentration, Botrytis Cinerea
[6] = read-out: Half maximal inhibitory concentration, Phytophthora Infestans

Compound | IC50 (Septoria tritici Desm.; [4]) [µM] | IC50 (Botrytis cinerea Pers.; [5]) [µM] | IC50 [2, 6] [µM] | also measured
C=NCCCC[C@H](NC(=O)[C@H](C)NC(=O)[C@H](CCCCNC(=O)OC(C)(C)C)NC(=O)[C@H](CC(C)C)NC(=O)[C@H](CC(C)C)NC(=O)[C@H](CCCCNC(=O)OC(C)(C)C)NC(=O)[C@H](C)NC(=O)[C@H](CC(C)C)NC(C)=O)C(=O)N[C@@H](C)C(=O)N[C@@H](CCCCNC(=O)OC(C)(C)C)C(=O)N[C@@H](C)C(=O)N[C@@H](CC(=O)O)C(N)=O | – | – | – | ring closure, conversion by HPLC (% crude UHPLC purity after cleavage) ([1]; 20-membered ring): 63 and 54
C=NCCCC[C@H](NC(=O)[C@H](CCCCNC(=O)OC(C)(C)C)NC(=O)[C@H](CC(C)C)NC(C)=O)C(=O)N[C@@H](CC(C)C)C(=O)N[C@@H](CC(C)C)C(=O)N[C@@H](CCCCNC(=O)OC(C)(C)C)C(=O)N[C@@H](CCC(=O)O)C(=O)N[C@@H](CC(C)C)C(=O)N[C@@H](CC(C)C)C(=O)N[C@@H](CCCCNC(=O)OC(C)(C)C)C(=O)N[C@@H](CCCCNC(=O)OC(C)(C)C)C(=O)N[C@@H](CC(C)C)C(N)=O | – | – | – | ring closure, conversion by HPLC (% crude UHPLC purity after cleavage) ([1]; 21-membered ring): 68
CC(=O)N[C@@H](CC(C)C)C(=O)N[C@@H](CCCCN)C(=O)N[C@@H](CCCCN)C(=O)N[C@@H](CC(C)C)C(=O)N[C@@H](CC(C)C)C(=O)N[C@@H](CCCCN)C(=O)N[C@@H](CCCCN)C(=O)N[C@H]1CCCCNC(=O)CC[C@@H](C(N)=O)NC(=O)[C@H](CCCCN)NC(=O)[C@H](CCCCN)NC(=O)[C@H](CC(C)C)NC1=O [Peptide 6, Ac-(cyclo-8,12))-[LKKLLKKKLKKE]-NH2] (Ac-LKKLLKKKLKKE-NH2; lactam 8-12) | – | – | – | IC50 (Septoria tritici Desm.): 16.6 µM; IC50 (Botrytis cinerea Pers.): > 50 µM; IC50 [2, 3]: 18 µM
Ac-(N-(2-(n-butylamino)-2-oxoethyl)-(cyclo-8,12))-[LAKLLKAKAKAD]-NH2 (sidechain bridge or staple) [Peptide 2] | > 50 | > 50 | 26.2 | –
Ac-(N-(2-(n-dodecylamino)-2-oxoethyl)-(cyclo-8,12))-[LAKLLKAKAKAD]-NH2 (sidechain bridge or staple) [Peptide 3] | 5.9 | 9.8 | 14.3 | –
Ac-(cyclo-8,12))-[LAKLLKAKAKAD]-NH2 (sidechain bridge or staple) [Peptide 4] | > 50 | > 50 | 20.9 | –
Ac-LAKLLKAKAKAD-NH2 [Peptide 1] | > 50 | > 50 | > 50 | –
Ac-LKKLLKKLLKKL-NH2 [Peptide 5, Ac-LKKLLKKLLKKL] | – | – | – | IC50 (Septoria tritici Desm.): 4.5 µM; IC50 (Botrytis cinerea Pers.): > 50 µM; IC50 [2, 3]: 5.4 µM
